Reference: patent US5574009A, “Method of stimulating myelination of cells” (Trustees of the University Of Pennsylvania, priority 1994, dated 1996)

Tested on: neonatal rat optic nerve cultures
Assay: Mitomycin C treatment of optic nerve cultures
Assay type: cell-based
Settings: 25 μg/ml for 30 minutes, PND-1, then 24 or 48 hours
Procedure: A stock solution of 0.5 mg/ml mitomycin C (Sigma) in HBSS (Gibco) was prepared and stored at 4° C. in the dark. Cultures were treated with 25 μg/ml mitomycin C diluted in N2/0.5% FCS for 30 minutes at 37° C. in the dark. The cultures were washed twice with N2/0.5% FCS and cultured for an additional 24 or 48 hours.
To test whether inhibition of proliferation per se affected the timing of GalC(+) appearance, optic nerve cultures prepared on PND-1 were treated with mitomycin C. After plating, the cells were incubated with 25 μg/ml mitomycin C for 30 minutes. After washing, the cultures were carried for an additional 24 or 48 hours.

CO[C@@]12[C@H](COC(N)=O)C3=C(C(=O)C(C)=C(N)C3=O)N1C[C@@H]1N[C@@H]12 [mitomycin C]
numbers of A2B5(+) cells: Decreased numbers of A2B5(+) cells | proportion of GalC(+) cells: without a concomitant increase in the proportion of GalC(+) cells
